Legend:
LdPAT4-DHHC [1] = biological target: T1, LdPAT4-DHHC (Leishmania donovani, UniProt A0A3S7X1Q3); test: click-chemistry metabolic labelling of E. coli expressing LdPAT4-DHHC, Oregon Green […] fluorometry; format: cell-based; conditions: substrate Alk-C16 100 uM, induced E. coli Rosetta cells, 37 C, 6 h; 2-BMP concentration not stated
T1 construct: gene LdCL_280025100; DHHC domain only (423 bp), N-terminal GST tag (pGEX-4T-1, BamHI/SalI), E. coli Rosetta, ~40 kDa with tag
T1 sequence (A0A3S7X1Q3 268-407): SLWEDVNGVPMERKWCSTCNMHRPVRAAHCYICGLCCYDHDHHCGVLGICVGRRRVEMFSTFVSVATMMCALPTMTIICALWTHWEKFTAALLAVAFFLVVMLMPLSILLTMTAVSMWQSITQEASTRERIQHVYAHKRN

LdPAT4-DHHC [2] = biological target: T1, LdPAT4-DHHC; test: as above; format: cell-based; conditions: 100 uM Alk-C16, induced E. coli Rosetta cells, 37 C, 6 h; labelled compound (alkyne probe)

| Compound | reduction in fluorescence intensity (LdPAT4-DHHC [1]) | click-chemistry metabolic labelling of E. coli expressing LdPAT4-DHHC, Oregon Gr (LdPAT4-DHHC [2]) |
| --- | --- | --- |
| CCCCCCCCCCCCCCC(Br)C(=O)O (centres unmarked) [2-BMP] | following 2-BMP treatment of induced cells, reduction in fluorescence intensity was detected | – |
| C#CCCCCCCCCCCCCCC(=O)O [Alk-C16] | – | predominant incorporation of palmitic acid analogs into transformed E. coli |

Source: PMC6022219, “Identification and Characterization of a Novel Palmitoyl Acyltransferase as a Druggable Rheostat of Dynamic Palmitoylome in L. donovani” (Frontiers in Cellular and Infection Microbiology, 2018)
